Test systems include RPMI-8226; SR; SF-295; BT-549; NCI-H226; SF-539; Hs-578T; HL-60; UACC-257; UO-31; HOP-92; SK-MEL-2; IGROV-1; MDA-MB-231; NCI-H460; OVCAR-5; UACC-62; HOP-62; M14; OVCAR-3.
What all share (test): NCI anticancer screen, dose series, 48 h

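Exposure lasted 48 hours, with cells grown in 96-well plates and compounds tested at five concentrations. Here, GI50 denotes the concentration required for 50% inhibition of growth.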 Calls of active or inactive are those of the source. No stated cut-off is given here; in the data, active = GI50 up to about 1.1 µM and inactive = higher.

For the compound `CC1NC(C(=O)O)Cc2cc(O)c(O)cc21` (stereo not given), the GI50 in the experiment on RPMI-8226, with SR, in the experiment on SF-295, in the experiment on BT-549, in the experiment with NCI-H226 and with SF-539 was > 100 µM (inactive) throughout. Further, the GI50 in the experiment with Hs-578T, in the experiment on HL-60, in the experiment on UACC-257, in the experiment with UO-31, in the experiment on HOP-92 and in the experiment with SK-MEL-2 was > 100 µM (inactive) in each case. For the same compound, the GI50 in the experiment on IGROV-1, in the experiment on MDA-MB-231, in the experiment with NCI-H460, in the experiment on OVCAR-5, in the experiment on UACC-62 and in the experiment on HOP-62 was > 100 µM (inactive) in each case. The GI50 in the experiment with M14 and in the experiment on OVCAR-3 was > 100 µM (inactive) each time.
Take `c1ccc(CN2COc3c(ccc4c5c(ccc34)CN(Cc3ccccc3)CO5)C2)cc1`: the GI50 in the experiment with RPMI-8226 is > 100 µM (inactive); in the experiment on SR it was > 100 µM (inactive); in the experiment on SF-295 it was > 100 µM (inactive); in the experiment on BT-549, > 100 µM (inactive); with NCI-H226, > 76.6 µM (inactive); with SF-539, > 100 µM (inactive). Besides, the GI50 in the experiment with Hs-578T, with HL-60, in the experiment with UACC-257, with UO-31, in the experiment on HOP-92 and in the experiment on SK-MEL-2 was > 100 µM (inactive) throughout. The GI50 in the experiment on IGROV-1, in the experiment on MDA-MB-231, with NCI-H460, in the experiment on OVCAR-5, in the experiment on UACC-62 and in the experiment with HOP-62 was > 100 µM (inactive) each time. Further, the GI50 in the experiment on M14 and in the experiment on OVCAR-3 was > 100 µM (inactive) each time.
As to `Cc1ccc(OC2CC(n3cnc4ncnc(Cl)c43)OC2Oc2ccc(C)cc2)cc1` (stereo not given), the GI50 in the experiment on RPMI-8226 is 2.81 µM (inactive); in the experiment on SR it was 2.48 µM (inactive); with SF-295, 21.1 µM (inactive); in the experiment on BT-549, 25.4 µM (inactive); with NCI-H226 it was 13.7 µM (inactive); in the experiment on SF-539, 7.78 µM (inactive). For the same compound, the GI50 with Hs-578T is 21.8 µM (inactive); in the experiment with HL-60, 3.77 µM (inactive); with UACC-257, 44.8 µM (inactive); with UO-31, 11.1 µM (inactive); in the experiment with HOP-92, 8.77 µM (inactive); in the experiment with SK-MEL-2, 13.6 µM (inactive). Further, the GI50 with IGROV-1 was 17 µM (inactive); in the experiment on MDA-MB-231, 17.5 µM (inactive); with NCI-H460 it was 12.7 µM (inactive); in the experiment with OVCAR-5, 22 µM (inactive); in the experiment with UACC-62, 14.1 µM (inactive); in the experiment on HOP-62, 27.3 µM (inactive). For the same compound, the GI50 in the experiment on M14 is 18.1 µM (inactive); with OVCAR-3, 14.6 µM (inactive).
Take `C=C(CCC/C(C)=C/C=C/[C@]1(C)CCCc2ccoc21)CC(=O)O`: the GI50 with RPMI-8226 was 54.2 µM (inactive); with SR, 39.3 µM (inactive); in the experiment on SF-295 it was > 100 µM (inactive); in the experiment on BT-549, 79.1 µM (inactive); in the experiment on NCI-H226 it was > 100 µM (inactive); in the experiment with SF-539 it was > 100 µM (inactive). Further, the GI50 is 50.5 µM (inactive) with Hs-578T; 43.6 µM (inactive) in the experiment with HL-60; > 100 µM (inactive) in the experiment with UACC-257; > 100 µM (inactive) with UO-31; > 100 µM (inactive) in the experiment on HOP-92; > 100 µM (inactive) with SK-MEL-2. For the same compound, the GI50 in the experiment with IGROV-1 is > 100 µM (inactive); in the experiment on MDA-MB-231 it was > 100 µM (inactive); in the experiment on NCI-H460, > 100 µM (inactive); in the experiment with OVCAR-5, > 100 µM (inactive); with UACC-62, 75.3 µM (inactive); in the experiment on HOP-62, > 100 µM (inactive). The GI50 in the experiment on M14 is > 100 µM (inactive); in the experiment on OVCAR-3, 54.8 µM (inactive).
For the compound `COc1ccc(C2SC(=N)Nc3c2c(C)nn3C(=O)c2ccncc2)cc1` (stereo not given), the GI50 was 57.3 µM (inactive) in the experiment on RPMI-8226; 21.2 µM (inactive) with SR; > 100 µM (inactive) in the experiment with SF-295; > 100 µM (inactive) with BT-549; > 100 µM (inactive) with NCI-H226; > 100 µM (inactive) with SF-539. Besides, the GI50 in the experiment on Hs-578T is > 100 µM (inactive); in the experiment on HL-60 it was 87.1 µM (inactive); in the experiment on UACC-257 it was > 100 µM (inactive); in the experiment on UO-31, > 100 µM (inactive); in the experiment on HOP-92 it was > 100 µM (inactive); in the experiment on SK-MEL-2 it was > 100 µM (inactive). Moreover, the GI50 is 89.5 µM (inactive) in the experiment with IGROV-1; > 100 µM (inactive) in the experiment with MDA-MB-231; 42.3 µM (inactive) with NCI-H460; > 100 µM (inactive) with OVCAR-5; > 100 µM (inactive) in the experiment on UACC-62; > 100 µM (inactive) in the experiment with HOP-62. Further, the GI50 with M14 is > 100 µM (inactive); in the experiment on OVCAR-3, 40.4 µM (inactive).
Turning to `COc1ccc2c(c1)c(=O)c1c(NCCNCCO)ccc3c(=O)n(CCN(C)C)c(=O)n2c31`, the GI50 in the experiment with RPMI-8226 was 0.0912 µM (active); in the experiment on SR, < 0.01 µM (active); in the experiment on SF-295 it was 0.0861 µM (active); in the experiment on BT-549, 0.615 µM (active); with NCI-H226, 0.148 µM (active); in the experiment on SF-539, < 0.0265 µM (active). In addition, the GI50 with Hs-578T is 0.132 µM (active); with HL-60, > 100 µM (inactive); with UACC-257 it was 0.261 µM (active); in the experiment on UO-31 it was 0.182 µM (active); in the experiment with HOP-92 it was 0.0766 µM (active); with SK-MEL-2, 0.243 µM (active). The GI50 was 0.0279 µM (active) with IGROV-1; 0.132 µM (active) in the experiment with MDA-MB-231; < 0.0202 µM (active) with NCI-H460; 0.227 µM (active) in the experiment on OVCAR-5; 0.0662 µM (active) with UACC-62; 0.109 µM (active) in the experiment on HOP-62. Also, the GI50 was 0.27 µM (active) with M14 and 0.331 µM (active) in the experiment with OVCAR-3.
For the compound `Oc1cccc2cc(Br)cnc12`, the GI50 in the experiment on RPMI-8226 is 3.49 µM (inactive); with SR, 3.42 µM (inactive); with SF-295, 6.15 µM (inactive); in the experiment on BT-549, 28.1 µM (inactive); in the experiment with NCI-H226, 27.5 µM (inactive); in the experiment with SF-539 it was 10 µM (inactive). In addition, the GI50 is 27.9 µM (inactive) in the experiment with Hs-578T; 1.05 µM (active) in the experiment on HL-60; 4.78 µM (inactive) in the experiment with UACC-257; 6.98 µM (inactive) with UO-31; 16 µM (inactive) with HOP-92; 24.5 µM (inactive) in the experiment with SK-MEL-2. Besides, the GI50 in the experiment with IGROV-1 was 5.09 µM (inactive); in the experiment with MDA-MB-231, 4.35 µM (inactive); in the experiment with NCI-H460, 5.89 µM (inactive); in the experiment on OVCAR-5 it was 17.7 µM (inactive); in the experiment with UACC-62 it was 5.96 µM (inactive); in the experiment with HOP-62 it was 16.2 µM (inactive). Moreover, the GI50 with M14 is 9.14 µM (inactive); with OVCAR-3, 2.67 µM (inactive).
Consider `Nc1nc(Nc2ccccc2)sc1C(=O)c1cccs1`, for which the GI50 in the experiment with RPMI-8226 was 12.8 µM (inactive); with SR it was 1.74 µM (inactive); in the experiment on SF-295 it was 21.8 µM (inactive); in the experiment with BT-549 it was 15.2 µM (inactive); in the experiment with NCI-H226 it was 16.8 µM (inactive); with SF-539, 10.7 µM (inactive). Also, the GI50 is 15.8 µM (inactive) with Hs-578T; 3.57 µM (inactive) in the experiment with HL-60; 17.7 µM (inactive) in the experiment with UACC-257; 11.5 µM (inactive) in the experiment on UO-31; 30.3 µM (inactive) in the experiment on HOP-92; 12.7 µM (inactive) with SK-MEL-2. In addition, the GI50 in the experiment on IGROV-1 was 11.7 µM (inactive); in the experiment on MDA-MB-231, 28.7 µM (inactive); in the experiment with NCI-H460, 10.4 µM (inactive); with OVCAR-5 it was 11.7 µM (inactive); with UACC-62 it was 15.7 µM (inactive); with HOP-62, 22.3 µM (inactive). For the same compound, the GI50 is 21.1 µM (inactive) with M14 and 3.94 µM (inactive) with OVCAR-3.
`OC1CCC(C2C3CCCCC3C3CCCCC3C2C2CCC(O)CC2)CC1` (stereo not given): the GI50 in the experiment on RPMI-8226 is 5.53 µM (inactive); in the experiment on SR it was 4.16 µM (inactive); with SF-295 it was 4.28 µM (inactive); in the experiment on BT-549, 3.89 µM (inactive); in the experiment on NCI-H226 it was 6 µM (inactive); in the experiment on SF-539, 10.6 µM (inactive). In addition, the GI50 in the experiment on Hs-578T is 7.28 µM (inactive); in the experiment on HL-60, 4.13 µM (inactive); in the experiment on UACC-257, 13.6 µM (inactive); in the experiment on UO-31, 4.81 µM (inactive); with HOP-92, 8.05 µM (inactive); in the experiment on SK-MEL-2, 5.56 µM (inactive). The GI50 is 3.7 µM (inactive) in the experiment with IGROV-1; 3.27 µM (inactive) with MDA-MB-231; 2.96 µM (inactive) in the experiment on NCI-H460; 7.59 µM (inactive) with OVCAR-5; 7.16 µM (inactive) in the experiment with UACC-62; 5.04 µM (inactive) with HOP-62. The GI50 with M14 is 5.19 µM (inactive); with OVCAR-3, 4.67 µM (inactive).
With `C[C@@H](CC(=O)OCc1ccccc1)OC1OC(COC(=O)C(C)(C)C)C(OC(=O)C(C)(C)C)C(OC(=O)C(C)(C)C)C1OC(=O)C(C)(C)C` (stereo not given in full), the GI50 in the experiment with RPMI-8226, in the experiment with SR, in the experiment on SF-295, in the experiment with BT-549, with NCI-H226 and with SF-539 was > 100 µM (inactive) each time. The GI50 with Hs-578T, in the experiment with HL-60, in the experiment with UACC-257, in the experiment with UO-31, with HOP-92 and in the experiment on SK-MEL-2 was > 100 µM (inactive) in each case. For the same compound, the GI50 in the experiment with IGROV-1, in the experiment with MDA-MB-231, in the experiment on NCI-H460, with OVCAR-5, with UACC-62 and in the experiment with HOP-62 was > 100 µM (inactive) in each case. The GI50 in the experiment with M14 and in the experiment with OVCAR-3 was > 100 µM (inactive) in each case.

Values taken from ChEMBL document CHEMBL1201862, “PubChem BioAssay data set” (2004).
